This is an account of results in PubChem BioAssay AID1259338 (Broad Institute, 2017).

Calls of active or inactive are those of the source.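 The calls were made as follows: active = compounds lowering the signal with a fitted AC50 at or below a set concentration limit; inconclusive = flat curve with 30 to 70% inhibition, or a poor fit; inactive = the rest.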

For the first assay, the target named is Caspase recruitment domain-containing protein 9 (Homo sapiens) + E3 ubiquitin-protein ligase TRIM62 (Homo sapiens) (UniProt Q9H257+Q9BVG3). As to the kind of experiment: disruptors of CARD9-TRIM62 binding, dose response, cell lysate, HEK293FT lysates, Luminex bead readout (AID 1259338). As to activity change, negative = inhibition: reference of the scale not given here. The conditions noted are these: Luminex bead PPI, MFI.
Caspase recruitment domain-containing protein 9 (Homo sapiens) + E3 ubiquitin-protein ligase TRIM62 (Homo sapiens), sequence (Q9BVG3 whole entry, looked up, the tested form may be a part): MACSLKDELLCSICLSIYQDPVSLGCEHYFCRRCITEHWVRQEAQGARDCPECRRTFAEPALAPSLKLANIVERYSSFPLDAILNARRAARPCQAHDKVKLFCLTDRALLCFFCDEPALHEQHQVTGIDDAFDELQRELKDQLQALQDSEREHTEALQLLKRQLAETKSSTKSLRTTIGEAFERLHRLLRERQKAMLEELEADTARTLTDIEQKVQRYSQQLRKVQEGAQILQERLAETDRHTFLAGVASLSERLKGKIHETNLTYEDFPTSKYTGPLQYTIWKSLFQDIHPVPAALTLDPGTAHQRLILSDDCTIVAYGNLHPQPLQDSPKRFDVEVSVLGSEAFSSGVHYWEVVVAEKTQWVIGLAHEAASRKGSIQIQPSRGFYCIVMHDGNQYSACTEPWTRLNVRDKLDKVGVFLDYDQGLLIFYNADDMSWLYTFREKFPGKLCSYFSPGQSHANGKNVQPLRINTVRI
Caspase recruitment domain-containing protein 9 (Homo sapiens) + E3 ubiquitin-protein ligase TRIM62 (Homo sapiens), sequence (Q9H257 whole entry, looked up, the tested form may be a part): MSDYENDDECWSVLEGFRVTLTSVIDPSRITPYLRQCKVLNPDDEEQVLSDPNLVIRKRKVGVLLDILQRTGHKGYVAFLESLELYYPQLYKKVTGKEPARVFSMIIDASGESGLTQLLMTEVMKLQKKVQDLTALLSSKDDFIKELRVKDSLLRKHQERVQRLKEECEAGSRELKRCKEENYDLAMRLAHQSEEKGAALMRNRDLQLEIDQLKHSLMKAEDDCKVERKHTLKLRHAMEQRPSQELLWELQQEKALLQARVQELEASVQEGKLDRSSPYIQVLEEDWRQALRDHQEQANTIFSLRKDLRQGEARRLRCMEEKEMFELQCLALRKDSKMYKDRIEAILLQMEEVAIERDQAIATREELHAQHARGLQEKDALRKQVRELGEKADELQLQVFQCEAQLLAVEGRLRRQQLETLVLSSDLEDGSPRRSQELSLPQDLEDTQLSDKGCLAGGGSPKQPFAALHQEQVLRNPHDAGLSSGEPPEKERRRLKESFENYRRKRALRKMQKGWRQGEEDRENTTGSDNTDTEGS
Turning to `Cc1ncnc(N2CCC(c3nccn3Cc3cccnc3)CC2)c1C`, the AC50 was > 160 µM (inactive).
As to `O=C(O)c1ccc2nc(-c3ccco3)c(-c3ccco3)nc2c1`, the half-maximal activity concentration (AC50) is 34.7 µM.
Still for that read-out and setting: then `CCCN1CCCn2nc(CNC(=O)[C@@H](N)Cc3ccc(O)cc3)cc2C1`, with 27.8 µM; and `Cc1cncc(-c2ccc(S(N)(=O)=O)cc2F)c1`, with 53.4 µM; and `O=C(NCC1CCCO1)c1cc(-c2ccco2)nc2ccccc12` (configuration not stated), with > 160 µM (inactive).
On the same count and under the same terms, with `Cc1noc(C)c1S(=O)(=O)Nc1ccc2c(c1)C(=O)N([C@H](C)CO)C[C@H](C)[C@@H](CN(C)C(=O)C1CCCCC1)OCCCC[C@H](C)O2` the figure was > 160 µM (inactive).
For `Cc1ccc(-c2nnc(-c3nc(Nc4nc5ccccc5s4)c4ccccc4n3)o2)cc1`, the AC50 is 42.1 µM.
For the compound `N#Cc1c(N)oc(-c2ccco2)c1-c1ccco1`, the AC50 was > 160 µM (inactive).
As to `O=C(COC(=O)c1ccc(F)cc1F)Nc1ncccn1`, the AC50 is 38.8 µM.
On the same count and under the same terms, then `Cc1ccc(N2NC(c3ccc(Br)cc3)=CCC2=O)cc1`, with 50.9 µM; and `CCCN1CCCn2nc(CNC(=O)[C@H]3CC[C@@H](N)C3)cc2C1`, with 23 µM; and `CCc1ccc(Nc2nc(C(=O)NCc3ccc(N(C)C)cc3)nc3ccccc23)cc1`, with 49 µM.
As to `Cc1ccc(C(=O)Nc2ccc(N3CCC(C(N)=O)(N4CCCCC4)CC3)c(C(=O)O)c2)cc1`, the AC50 was 24.3 µM.
In the case of `COc1ccc(S(=O)(=O)c2ccccc2)cc1NS(=O)(=O)c1cccc(C(=O)O)c1`, the AC50 is > 160 µM (inactive).
Take `NC(=O)c1ccc(CN2C(=O)C3(CCNCC3)Nc3ccccc32)cc1`: the AC50 was > 160 µM (inactive).
For the compound `O=C(Nc1ccc2oc(-c3ccncc3)nc2c1)c1ccc2c(c1)OCO2`, the AC50 was 41.8 µM.
As to `COCC(=O)N1CCCC2(CCN(CCN3CCCC3)C2=O)C1` (configuration not stated), the AC50 is > 160 µM (inactive).
On the same count and under the same terms, then `NC(=O)C1(N2CCCCC2)CCN(c2ncc(NC(=O)c3ccccc3)cc2C(=O)O)CC1`, with 3.25 µM.

The assay is the same for the next values; noted with them: Luminex bead PPI, MFI, at 38 µM (top of the series).
`Cc1cccc(Nc2nc(C(=O)Nc3cc(F)ccc3F)nc3ccccc23)c1`: the “activity change, negative = inhibition” value is “inactive”.
On the same count and under the same terms, with `Cc1ccc(C)n1Nc1nc(O)cs1` the entry was “inactive”; with `COc1ccc(NC(=O)c2nc(Nc3ccccc3)c3ccccc3n2)cc1`, “inactive”.

The assay is the same for the next values; noted with them: Luminex bead PPI, MFI, at 80 µM (top of the series).
In the case of `COc1ccc(Nc2nc(-c3nnc(-c4ccc(F)cc4)o3)nc3ccccc23)cc1Cl`, the “activity change, negative = inhibition” value is “inactive”.
As to `O=C(COC(=O)c1cc(-c2cccs2)nc2ccccc12)NCc1ccco1`, the “activity change, negative = inhibition” value was “inactive”.
On to `O=C(O)c1cc(-c2ccc(-c3ccc(F)cc3)o2)nc2ccccc12`, for which the “activity change, negative = inhibition” value was “inactive”.
Regarding `Cc1ccc(-c2cc(C(=O)Nc3ccccn3)c3ccccc3n2)o1`, the “activity change, negative = inhibition” value is “inactive”.
With `CC(=O)c1sc2nc(-c3ccco3)ccc2c1N`, the “activity change, negative = inhibition” value is “inactive”.
As to `O=C(Nc1nnc(-c2ccco2)s1)c1ccccc1`, the “activity change, negative = inhibition” value was “inactive”.
On the same count and under the same terms, with `COc1ccc(F)c(CN2C[C@H]3CC[C@@H]2CN(Cc2cscn2)C3)c1` the entry was “inactive”; with `FC(F)(F)c1cc(Cl)c2nnc(C(F)(F)Cl)n2c1`, “inactive”; with `O=C(CCN1CCOCC1)c1ccc2c(c1)OCCO2`, “inactive”.
On the same count and under the same terms, then `C(=C\c1ccco1)/c1nc2ccccc2[nH]1`, with “inactive”.
Same read-out and setting: with `O=C(Nc1cccc2nsnc12)c1ccc(-c2cccc(Cl)c2)o1` the entry was “inactive”; with `COCC(=O)n1nc(-c2ccco2)nc1NCc1cccs1`, “inactive”.
On to `Cc1[nH]c2ccc(Cl)cc2c(=O)c1CN1CCCC1`, for which the “activity change, negative = inhibition” value was “inactive”.
For `C[C@H](CO)N1C[C@H](C)[C@@H](CN(C)C(=O)C2CCCCC2)OCCCC[C@H](C)Oc2ccc(NS(=O)(=O)c3ccc(Cl)cc3)cc2C1=O`, the “activity change, negative = inhibition” value was “inactive”.
In the case of `CCc1oc2ccccc2c1C(=O)CCN1CCCCC1`, the “activity change, negative = inhibition” value is “inactive”.
Take `Cc1noc(CN(C)C(=O)c2cc(-c3ccco3)nc3c(C)c(Cl)ccc23)n1`: the “activity change, negative = inhibition” value is “inactive”.
As for `Cc1occc1C(=O)NCc1cccc(CNC(=O)c2ccoc2C)c1`, the “activity change, negative = inhibition” value is “inactive”.
On to `Cc1cc(C(=O)NCc2ccco2)on1`, for which the “activity change, negative = inhibition” value is “inactive”.
On the same count and under the same terms, with `Cc1ccc(-c2nc(C)sc2CC(=O)NCc2ccco2)cc1` the entry was “inactive”; with `O=C(Nc1cccc2ccccc12)NC1CC1`, “inactive”; with `O=C1NC(c2ccc(Br)cc2)Nc2sc3c(c21)CCC3` (configuration not stated), “inactive”.
For the compound `N#CNc1nc(O)cc(=O)[nH]1`, the “activity change, negative = inhibition” value was “inactive”.
As for `CC(CCc1ccco1)N(C)S(=O)(=O)c1ccc2[nH]c(=O)ccc2c1` (configuration not stated), the “activity change, negative = inhibition” value is “inactive”.
`Cc1ccc(N2C(=O)c3ccccc3C2C(=O)c2ccc(O)cc2O)cc1` (configuration not stated): the “activity change, negative = inhibition” value was “inactive”.
As for `CCN1CCOC(=O)C1CC(=O)Nc1cccc(C)c1` (configuration not stated), the “activity change, negative = inhibition” value is “inactive”.
As to `O=[N+]([O-])c1ccc2nn(Cc3ccccc3)cc2c1`, the “activity change, negative = inhibition” value was “inactive”.
On to `Cc1ccc(S(=O)(=O)Nc2ccc3c(c2)C(=O)N([C@H](C)CO)C[C@H](C)[C@@H](CN(C)CC2CCCCC2)OCCCC[C@H](C)O3)cc1`, for which the “activity change, negative = inhibition” value is “inactive”.
Regarding `CCCN1CCc2nc(SCc3nc(-c4ccc(OC)cc4OC)oc3C)[nH]c(=O)c2C1`, the “activity change, negative = inhibition” value was “inactive”.
The same measure, in the same setting: with `O=[N+]([O-])c1c(NCCCO)cc(SCc2ccco2)c2nonc12` the entry was “inactive”; with `Cc1ccc(C2CC(=O)C3=C(C2)Nc2ccccc2NC3c2cccnc2)cc1` (configuration not stated), “inactive”; with `C(=N\n1cnnc1SCc1ccccc1)/c1ccco1`, “inactive”.
As to `O=C(Nc1ncccc1O)c1ccc(OCC2CCCO2)cc1` (configuration not stated), the “activity change, negative = inhibition” value is “inactive”.
In the case of `O=c1oc(/C=C/c2ccc([N+](=O)[O-])s2)nc2ccccc12`, the “activity change, negative = inhibition” value is “inactive”.
`CC(C)=CCC(C#N)(CC=C(C)C)C(=O)O`: the “activity change, negative = inhibition” value is “inactive”.
Same read-out and setting: with `O=C(COC(=O)c1ccc(S(=O)(=O)NCc2ccco2)cc1)Nc1ccc(Cl)cn1` the entry was “inactive”; with `COc1cc(N)c(Cc2nccc3cc(OC)c(OC)cc23)cc1OC`, “inactive”; with `Cc1nc2ccccc2nc1CSCc1ccco1`, “inactive”.
For `C[C@H](CO)N1C[C@H](C)[C@H](CN(C)C(=O)C2CCCCC2)OCCCC[C@H](C)Oc2ccc(NS(=O)(=O)c3cccs3)cc2C1=O`, the “activity change, negative = inhibition” value was “inactive”.
In the case of `CCc1nc(OCc2ccco2)c2sc3nc4c(cc3c2n1)COC(C)(C)C4`, the “activity change, negative = inhibition” value is “inactive”.
On to `Cc1nn2c(c1-c1ccccc1)NC(c1ccco1)=CC2c1ccco1` (configuration not stated), for which the “activity change, negative = inhibition” value was “inactive”.
On to `CC1Cc2ccccc2N1CC(=O)NC(=O)NC(C)(C)C` (configuration not stated), for which the “activity change, negative = inhibition” value is “inactive”.
